Test system: MV-4-11 cells
Test: Gene expression microarray analysis (Affymetrix PrimeView) and GSEA
Format: cell-based, human
Parameters: RFU PODN (11730768_x_at) / Fold change /veh PODN (11730768_x_at) / RFU LINC00158 (11744669_a_at) / Fold change /veh LINC00158 (11744669_a_at) / RFU DUSP10 (11751237_a_at) / Fold change /veh DUSP10 (11751237_a_at) / RFU ID3 (11757404_x_at) / Fold change /veh ID3 (11757404_x_at) / RFU PLEKHG5 (11737974_s_at) / Fold change /veh PLEKHG5 (11737974_s_at) / RFU LRRC4B (11730491_at) / Fold change /veh LRRC4B (11730491_at) / RFU GIMAP4 (11747438_a_at) / Fold change /veh GIMAP4 (11747438_a_at) / RFU KRT8 (11758183_x_at) / Fold change /veh KRT8 (11758183_x_at) / RFU CNN1 (11734310_a_at) / Fold change /veh CNN1 (11734310_a_at) / RFU VPS37D (11726825_at) / Fold change /veh VPS37D (11726825_at) / RFU C10orf10 (11716522_x_at) / Fold change /veh C10orf10 (11716522_x_at) / RFU KIR2DL2 /// KIR2DL4 /// KIR2DL5A /// KIR2DL5B /// KIR2DS1 /// KIR2DS2 /// KIR2DS3 /// KIR2DS4 /// KIR3DL3 /// KIR3DL3 /// KIR3DS1 (11738374_at) / Fold change /veh KIR2DL2 /// KIR2DL4 /// KIR2DL5A /// KIR2DL5B /// KIR2DS1 /// KIR2DS2 /// KIR2DS3 /// KIR2DS4 /// KIR3DL3 /// KIR3DL3 /// KIR3DS1 (11738374_at) / RFU C1QL1 (11718748_at) / Fold change /veh C1QL1 (11718748_at) / RFU TMPRSS4 (11747572_a_at) / Fold change /veh TMPRSS4 (11747572_a_at) / RFU HAMP (11756126_x_at) / Fold change /veh HAMP (11756126_x_at) / RFU RNFT2 (11725882_a_at) / Fold change /veh RNFT2 (11725882_a_at) / RFU NR4A2 (11747474_a_at) / Fold change /veh NR4A2 (11747474_a_at) / RFU ABCC12 (11746883_a_at) / Fold change /veh ABCC12 (11746883_a_at) / RFU TMEM136 (11760407_x_at) / Fold change /veh TMEM136 (11760407_x_at) / RFU CLDN22 /// WWC2 (11732394_at) / Fold change /veh CLDN22 /// WWC2 (11732394_at) / RFU HLA-DPB1 (11760878_x_at) / Fold change /veh HLA-DPB1 (11760878_x_at) / RFU SPINT1 (11716480_a_at) / Fold change /veh SPINT1 (11716480_a_at) / RFU GAP43 (11754022_s_at) / Fold change /veh GAP43 (11754022_s_at) / RFU A4GNT (11735810_at) / Fold change /veh A4GNT (11735810_at) / RFU PRB3 (11715151_x_at) / Fold change /veh PRB3 (11715151_x_at) / RFU TUBB4B (11761932_at) / Fold change /veh TUBB4B (11761932_at) / RFU CAPN14 (11732068_a_at) / Fold change /veh CAPN14 (11732068_a_at) / RFU TMCC2 (11721928_a_at) / Fold change /veh TMCC2 (11721928_a_at) / RFU IRGQ (11745062_a_at) / Fold change /veh IRGQ (11745062_a_at) / RFU FAM174B (11720279_a_at) / Fold change /veh FAM174B (11720279_a_at) / RFU TMPRSS4 (11748680_a_at) / Fold change /veh TMPRSS4 (11748680_a_at) / RFU FAM212B (11763350_a_at) / Fold change /veh FAM212B (11763350_a_at) / RFU PLEKHG5 (11743358_a_at) / Fold change /veh PLEKHG5 (11743358_a_at) / RFU ZSCAN30 (11745921_a_at) / Fold change /veh ZSCAN30 (11745921_a_at) / RFU CMKLR1 (11741424_a_at) / Fold change /veh CMKLR1 (11741424_a_at) / RFU LOC101060620 /// MAPK8IP1 (11723275_at) / Fold change /veh LOC101060620 /// MAPK8IP1 (11723275_at) / RFU SPTSSB (11747773_x_at) / Fold change /veh SPTSSB (11747773_x_at) / RFU PRSS12 (11739890_at) / Fold change /veh PRSS12 (11739890_at) / RFU BIN1 (11741810_x_at) / Fold change /veh BIN1 (11741810_x_at) / RFU WNT11 (11732464_a_at) / Fold change /veh WNT11 (11732464_a_at) / RFU C10orf10 (11716521_a_at) / Fold change /veh C10orf10 (11716521_a_at) / RFU C5orf56 (11738089_at) / Fold change /veh C5orf56 (11738089_at) / RFU CYB561 (11721691_x_at) / Fold change /veh CYB561 (11721691_x_at) / RFU ANKRD19P (11752326_a_at) / Fold change /veh ANKRD19P (11752326_a_at) / RFU OR2T12 /// OR2T33 /// OR2T8 (11738714_s_at) / Fold change /veh OR2T12 /// OR2T33 /// OR2T8 (11738714_s_at) / RFU VCAN (11748164_a_at) / Fold change /veh VCAN (11748164_a_at) / RFU JSRP1 (11732532_at) / Fold change /veh JSRP1 (11732532_at) / RFU KRTAP10-11 (11738290_x_at) / Fold change /veh KRTAP10-11 (11738290_x_at) / RFU MYO3A (11730013_a_at) / Fold change /veh MYO3A (11730013_a_at) / RFU EBF3 (11725865_a_at) / Fold change /veh EBF3 (11725865_a_at) / RFU CAMK2N1 (11719241_x_at) / Fold change /veh CAMK2N1 (11719241_x_at) / RFU C5orf56 (11738088_a_at) / Fold change /veh C5orf56 (11738088_a_at) / RFU OLFML3 (11715873_a_at) / Fold change /veh OLFML3 (11715873_a_at) / RFU LOC100653217 /// NTM (11731650_a_at) / Fold change /veh LOC100653217 /// NTM (11731650_a_at) / RFU MAPK11 (11762145_a_at) / Fold change /veh MAPK11 (11762145_a_at) / RFU FIZ1 (11724087_x_at) / Fold change /veh FIZ1 (11724087_x_at) / RFU OASL (11726364_x_at) / Fold change /veh OASL (11726364_x_at) / RFU SOX15 (11748057_x_at) / Fold change /veh SOX15 (11748057_x_at) / RFU CD79A (11719716_a_at) / Fold change /veh CD79A (11719716_a_at) / RFU HIST1H1D (11736915_at) / Fold change /veh HIST1H1D (11736915_at) / RFU CASKIN2 (11723855_a_at) / Fold change /veh CASKIN2 (11723855_a_at) / RFU LOC730098 (11760151_x_at) / Fold change /veh LOC730098 (11760151_x_at) / RFU OR4N2 (11742367_at) / Fold change /veh OR4N2 (11742367_at) / RFU PRRT2 (11749266_a_at) / Fold change /veh PRRT2 (11749266_a_at) / RFU SNX32 (11753110_a_at) / Fold change /veh SNX32 (11753110_a_at) / RFU CDHR5 (11726645_a_at) / Fold change /veh CDHR5 (11726645_a_at) / RFU RCAN1 (11760418_a_at) / Fold change /veh RCAN1 (11760418_a_at) / RFU FAM167A (11723789_a_at) / Fold change /veh FAM167A (11723789_a_at) / RFU FAM26E (11764081_at) / Fold change /veh FAM26E (11764081_at) / RFU ISYNA1 (11749810_s_at) / Fold change /veh ISYNA1 (11749810_s_at) / RFU ACY1 (11761880_at) / Fold change /veh ACY1 (11761880_at) / RFU 11764098_at / Fold change /veh 11764098_at / RFU SAMD14 (11745864_x_at) / Fold change /veh SAMD14 (11745864_x_at) / RFU NPB (11741838_a_at) / Fold change /veh NPB (11741838_a_at) / RFU TMPRSS6 (11731388_a_at) / Fold change /veh TMPRSS6 (11731388_a_at) / RFU KRTAP10-2 (11738614_at) / Fold change /veh KRTAP10-2 (11738614_at) / RFU ARHGAP8 /// PRR5-ARHGAP8 (11727945_x_at) / Fold change /veh ARHGAP8 /// PRR5-ARHGAP8 (11727945_x_at) / RFU KRTAP5-7 /// NADSYN1 (11734609_at) / Fold change /veh KRTAP5-7 /// NADSYN1 (11734609_at) / RFU RASL12 (11751679_a_at) / Fold change /veh RASL12 (11751679_a_at) / RFU CDKN2B (11736163_a_at) / Fold change /veh CDKN2B (11736163_a_at) / RFU PRF1 (11729649_at) / Fold change /veh PRF1 (11729649_at) / RFU, ZNF638 /// ZNF638-IT1 / Fold change vs veh, ZNF638 /// ZNF638-IT1 / RFU, PANK3 / Fold change vs veh, PANK3 / RFU, SH3YL1 / Fold change vs veh, SH3YL1 / RFU, ZEB2 / Fold change vs veh, ZEB2 / RFU, NRIP1 / Fold change vs veh, NRIP1 / RFU, PTTG1IP / Fold change vs veh, PTTG1IP / RFU, CAPN2 / Fold change vs veh, CAPN2 / RFU, MED14 / Fold change vs veh, MED14 / RFU, SNORA58 / Fold change vs veh, SNORA58 / RFU, C1orf63 / Fold change vs veh, C1orf63 / RFU, LRRFIP1 / Fold change vs veh, LRRFIP1 / RFU, NDUFAF7 / Fold change vs veh, NDUFAF7 / RFU, SLC12A2 / Fold change vs veh, SLC12A2 / RFU, IBTK / Fold change vs veh, IBTK / RFU, ESF1 / Fold change vs veh, ESF1 / Fold change vs veh, TMEM50B / RFU, TAOK1 / Fold change vs veh, TAOK1 / RFU, ACBD3 / Fold change vs veh, ACBD3 / RFU, TMA16 / Fold change vs veh, TMA16 / RFU, RWDD3 / Fold change vs veh, RWDD3 / RFU, BCAT1 / Fold change vs veh, BCAT1 / RFU, EDEM3 / Fold change vs veh, EDEM3 / RFU, TMEM33 / Fold change vs veh, TMEM33 / RFU, WDR75 / Fold change vs veh, WDR75 / RFU, AHCTF1 / Fold change vs veh, AHCTF1 / RFU, TFRC / Fold change vs veh, TFRC / RFU, ZDHHC17 / Fold change vs veh, ZDHHC17 / RFU, NOM1 / Fold change vs veh, NOM1 / RFU, ARL8B / Fold change vs veh, ARL8B / RFU, ZBTB11 / Fold change vs veh, ZBTB11 / RFU, TAMM41 / Fold change vs veh, TAMM41 / RFU, KIAA1704 /// LOC100996395 / Fold change vs veh, KIAA1704 /// LOC100996395 / RFU, ING1 / Fold change vs veh, ING1 / RFU, TRMT61B / Fold change vs veh, TRMT61B / RFU, FUBP3 / Fold change vs veh, FUBP3 / RFU, TP53 / Fold change vs veh, TP53 / RFU, TNKS2 / Fold change vs veh, TNKS2 / RFU, ZFP14 / Fold change vs veh, ZFP14 / RFU, ACTR2 / Fold change vs veh, ACTR2 / RFU, PPP3R1 / Fold change vs veh, PPP3R1 / RFU, PIK3R1 / Fold change vs veh, PIK3R1 / RFU, HNRNPA1 / Fold change vs veh, HNRNPA1 / RFU, RNF170 / Fold change vs veh, RNF170 / RFU, ZNF28 / Fold change vs veh, ZNF28 / RFU, RNGTT / Fold change vs veh, RNGTT / RFU, OGT / Fold change vs veh, OGT / RFU, BRD1 / Fold change vs veh, BRD1 / RFU, MARS / Fold change vs veh, MARS / RFU, ZNF655 / Fold change vs veh, ZNF655 / RFU, FAHD1 / Fold change vs veh, FAHD1 / RFU, BDP1 / Fold change vs veh, BDP1 / RFU, LRRCC1 / Fold change vs veh, LRRCC1 / RFU, ARID1A / Fold change vs veh, ARID1A / RFU, ZNF146 / Fold change vs veh, ZNF146 / RFU, ZNF330 / Fold change vs veh, ZNF330 / RFU, GPN3 / Fold change vs veh, GPN3 / RFU, C9orf123 / Fold change vs veh, C9orf123 / RFU, N4BP2L2 / Fold change vs veh, N4BP2L2 / RFU, ARFIP1 / Fold change vs veh, ARFIP1 / RFU, FAM179B / Fold change vs veh, FAM179B / RFU, BCL10 / Fold change vs veh, BCL10 / RFU, UHRF1BP1L / Fold change vs veh, UHRF1BP1L / RFU, BET1 / Fold change vs veh, BET1 / RFU, CNOT2 / Fold change vs veh, CNOT2 / RFU, ZNF268 / Fold change vs veh, ZNF268 / Fold change vs veh, ZNF507 / RFU, DGCR2 / Fold change vs veh, DGCR2 / RFU, WDSUB1 / Fold change vs veh, WDSUB1 / Fold change vs veh, HSP90B1 /// MIR3652 / RFU, ADSS / Fold change vs veh, ADSS / RFU, GK / Fold change vs veh, GK / RFU, ZNF148 / Fold change vs veh, ZNF148 / RFU, TAF9 / Fold change vs veh, TAF9 / RFU, SLC1A5 / Fold change vs veh, SLC1A5 / RFU, SLMO2 / Fold change vs veh, SLMO2 / RFU, ABCC4 / Fold change vs veh, ABCC4 / RFU, LOC101060439 /// RAP1B / Fold change vs veh, LOC101060439 /// RAP1B / RFU, RFX7 / Fold change vs veh, RFX7 / RFU, GTPBP10 / Fold change vs veh, GTPBP10 / RFU, CNEP1R1 / Fold change vs veh, CNEP1R1 / RFU, BIVM-ERCC5 /// ERCC5 / Fold change vs veh, BIVM-ERCC5 /// ERCC5 / RFU, ILF3 / Fold change vs veh, ILF3 / RFU 11762660_at / Fold change /veh 11762660_at / RFU VCAN (11757783_s_at) / Fold change /veh VCAN (11757783_s_at) / RFU DDX43 (11728927_at) / Fold change /veh DDX43 (11728927_at) / RFU KRT8 (11758188_x_at) / Fold change /veh KRT8 (11758188_x_at) / RFU NKD1 (11759106_at) / Fold change /veh NKD1 (11759106_at) / RFU SRD5A1 (11742802_a_at) / Fold change /veh SRD5A1 (11742802_a_at) / RFU TPSAB1 /// TPSB2 (11721975_s_at) / Fold change /veh TPSAB1 /// TPSB2 (11721975_s_at) / RFU GSTM3 (11746129_a_at) / Fold change /veh GSTM3 (11746129_a_at) / RFU IL23R (11737362_x_at) / Fold change /veh IL23R (11737362_x_at) / RFU TMEM51 (11727254_a_at) / Fold change /veh TMEM51 (11727254_a_at) / RFU PIWIL2 (11732686_x_at) / Fold change /veh PIWIL2 (11732686_x_at) / RFU ORM1 (11744905_x_at) / Fold change /veh ORM1 (11744905_x_at) / RFU CCDC152 (11743942_at) / Fold change /veh CCDC152 (11743942_at) / RFU ECM1 (11717891_a_at) / Fold change /veh ECM1 (11717891_a_at) / RFU IL23R (11748794_a_at) / Fold change /veh IL23R (11748794_a_at) / RFU TNFAIP8L3 (11732012_x_at) / Fold change /veh TNFAIP8L3 (11732012_x_at) / RFU MBOAT4 (11741988_at) / Fold change /veh MBOAT4 (11741988_at) / RFU 11764193_at / Fold change /veh 11764193_at / RFU TMEM53 (11763286_at) / Fold change /veh TMEM53 (11763286_at) / RFU MAGEB2 (11727129_at) / Fold change /veh MAGEB2 (11727129_at) / RFU TMEM200A (11744735_a_at) / Fold change /veh TMEM200A (11744735_a_at) / RFU CCDC152 (11751479_a_at) / Fold change /veh CCDC152 (11751479_a_at) / RFU FAM211A (11726209_a_at) / Fold change /veh FAM211A (11726209_a_at) / RFU RGS16 (11746705_a_at) / Fold change /veh RGS16 (11746705_a_at) / RFU VCAN (11755009_s_at) / Fold change /veh VCAN (11755009_s_at) / RFU RHOB (11743442_s_at) / Fold change /veh RHOB (11743442_s_at) / RFU RGS16 (11720943_a_at) / Fold change /veh RGS16 (11720943_a_at) / RFU RGS16 (11720944_at) / Fold change /veh RGS16 (11720944_at) / RFU, VPS4B / Fold change vs veh, VPS4B / RFU, CREB1 / Fold change vs veh, CREB1 / RFU, DNAJC13 / Fold change vs veh, DNAJC13 / RFU, GNAQ / Fold change vs veh, GNAQ / RFU, CDK5R1 / Fold change vs veh, CDK5R1 / RFU, ZRANB3 / Fold change vs veh, ZRANB3 / RFU, CUL4A / Fold change vs veh, CUL4A / RFU, CCNY / Fold change vs veh, CCNY / RFU, UFL1 / Fold change vs veh, UFL1 / RFU, COG3 / Fold change vs veh, COG3 / RFU, DIAPH2 / Fold change vs veh, DIAPH2 / RFU, SKA2 / Fold change vs veh, SKA2 / RFU, AFF3 / Fold change vs veh, AFF3 / RFU, LMF1 / Fold change vs veh, LMF1 / RFU, IPO11 / Fold change vs veh, IPO11 / RFU, DFFB / Fold change vs veh, DFFB / RFU, FOXP1 / Fold change vs veh, FOXP1 / RFU, CARD8 / Fold change vs veh, CARD8 / RFU, STRN3 / Fold change vs veh, STRN3 / RFU, ADK / Fold change vs veh, ADK / RFU, RASSF2 / Fold change vs veh, RASSF2 / RFU, WIPF1 / Fold change vs veh, WIPF1 / RFU, LARP1B / Fold change vs veh, LARP1B / RFU, RASA1 / Fold change vs veh, RASA1 / RFU, RB1 / Fold change vs veh, RB1 / RFU, PPFIA1 / Fold change vs veh, PPFIA1 / RFU, MAT2A / Fold change vs veh, MAT2A / RFU, CCT5 / Fold change vs veh, CCT5 / RFU, WDR92 / Fold change vs veh, WDR92 / RFU, CUX1 / Fold change vs veh, CUX1 / RFU, TTC7A / Fold change vs veh, TTC7A / RFU, TMEM135 / Fold change vs veh, TMEM135 / RFU, DEPTOR / Fold change vs veh, DEPTOR / RFU, CPM / Fold change vs veh, CPM / RFU, DNAJB6 / Fold change vs veh, DNAJB6 / RFU, CACNA2D3 / Fold change vs veh, CACNA2D3 / RFU, DTX4 / Fold change vs veh, DTX4 / RFU, TFCP2 / Fold change vs veh, TFCP2 / RFU, GMCL1 /// GMCL1P1 / Fold change vs veh, GMCL1 /// GMCL1P1 / RFU, AEBP2 / Fold change vs veh, AEBP2 / RFU, SNHG1 /// SNORD22 /// SNORD25 /// SNORD26 /// SNORD27 /// SNORD28 /// SNORD29 /// SNORD31 / Fold change vs veh, SNHG1 /// SNORD22 /// SNORD25 /// SNORD26 /// SNORD27 /// SNORD28 /// SNORD29 /// SNORD31 / Fold change (Aza/veh), C12orf56 (ProbeSet 11735607_a_at) / Fold change (ACY-1035/veh), C12orf56 (ProbeSet 11735607_a_at) / Fold change (Aza/veh), FGFR1OP (ProbeSet 11751329_s_at) / Fold change (ACY-1035/veh), FGFR1OP (ProbeSet 11751329_s_at) / Fold change (Aza/veh), VPS36 (ProbeSet 11739960_a_at) / Fold change (ACY-1035/veh), VPS36 (ProbeSet 11739960_a_at) / RFU SYPL1 (11715823_x_at) / Fold change /veh SYPL1 (11715823_x_at) / RFU IGFBP7 (11715501_s_at) / Fold change /veh IGFBP7 (11715501_s_at) / RFU REEP3 (11722064_at) / Fold change /veh REEP3 (11722064_at) / RFU IGLL1 (11728026_x_at) / Fold change /veh IGLL1 (11728026_x_at): dose or concentration left out as unconfirmed
Conditions: ProbeSet 11722022_s_at; LIST D

Q: Nc1ccc(-c2cccs2)cc1NC(=O)c1ccc2c(c1)cc(C1CC1)n2CCN1CCOCC1 [ACY-1035] was tested. Which “Fold change vs veh, CDK5R1” value did it give?
A: The value was 0.91.
